Experimental findings from patent US6458760B1, “Method for treating tissue damaged from ischemia” (Henry Ford Health System, priority 1998, dated 2002) are described below.

Test [1] has as its system Wistar rats with MCA occlusion. Briefly: Stroke model, 2 h MCA occlusion, i.v. infusion after reperfusion, infarct volume at 7 days. Format: in vivo, rat. To be noted: for % Hemisphere Infarct Volume (% ± SEM): 2 h MCA occlusion, day 7, control 37 ± 2.6. On the procedure:
Male Wistar rat weighing between 270-290 gm are fasted the night prior to surgery. Each rat was then anesthetized with 3.5% halothane, and spontaneously respired with 0.5% halothane in a 2:1 N2O:O2 mixture using a face mask. A normal range of blood gases and pH is maintained during ischemia and reperfusion with the face mask inhalation, as verified by samples taken from a femoral artery PE-50 catheter. Body temperature is maintained constant at 37° C. with a recirculating heating pad and K module with an intrarectal type T thermocouple. The PE-50 catheters are inserted into the femoral artery and vein following induction of anesthesia to obtain the blood gas, glucose and hemoglobin concentrations and to monitor blood pressure.
The right common carotid artery, external carotid artery and internal carotid artery are isolated using microsurgical techniques. A clamp is applied to the common carotid artery and a 4-0 nylon suture with a rounded tip is inserted into the external carotid artery through a small puncture. The clamp on the common carotid artery is removed. The suture is passed distally into the internal carotid artery until it blocks the middle cerebral artery. Two hours after the MCA occlusion, the animal is again anesthetized, and the nylon suture is removed from the internal carotid artery.
Infusion of the inhibitor or vehicle is done by intravenous infusion via the femoral vein.
Syringe pumps were filled under sterile conditions with either isotonic saline/1% DMSO solution as the control or with the concentration of CP-1 or CP-2 indicated in the examples, hereinbelow. The pumps delivered the solution at a rate of 15 μl/min for up to 4 hours.
(§1) After anesthesia had been induced in the rat, a catheter was inserted into the femoral vein and tunneled subcutaneously in the posterior neck region. Body temperature was maintained at a constant temperature of 37° C. during surgical procedures. The animals underwent 2 hours of MCA occlusion, and then reperfusion when the suture was withdrawn, and immediately thereafter, the drug was infused for four hours. The animals were killed after a 7-day reperfusion, and the brains were formalin fixed and sliced 6-μm thick into seven coronal sections A-G, and mounted on coated slides. After staining with hematoxylin and eosin, the stroke volume was measured using an image analysis program. The stroke area and the contralateral hemispheric area were calculated by tracing the areas on the computer screen, and the volumes were determined by multiplying the appropriate area by the section interval thickness. The stroke volume is expressed as the percentage of lesion size to the volume of contralateral hemisphere. Statistical analysis was performed using the independent t-test.
CP-1 dissolved in 1% DMSO and isotonic saline was given intravenously to Wistar rats (15 μl/min) at concentrations of 2 μM, 10μM, 50μM and 25μM for 4 hours immediately after reperfusion following two hours of MCA occlusion, in accordance with the procedure described hereinabove. Control animals underwent a similar protocol but they had injected therein 1% DMSO/Saline as the vehicle within four hours. All animals which survived 7 days were sacrificed and the stroke volume calculated. The results are tabulated hereinbelow:
The protocol described hereinabove was repeated with CP-2 used in lieu of CP-1, at doses of 10, 50, 250 and 500 μM.

For test [2], the system named is Wistar rats with MCA occlusion. Briefly: Stroke model, 3 h MCA occlusion, infarct volume at 7 days. Format: in vivo, rat. The protocol: as §1, with “Statistical analysis was performed using the independent t-test.” left out
CP-1 dissolved in 1% DMSO and isotonic saline was given intravenously to Wistar rats (15 μl/min) at a concentration of 50 μM for four hours beginning at the end of three hours of MCA occlusion, in accordance with the protocol described hereinabove. […] All animals which survived 7 days were sacrificed and the infarct volume was measured 7 days after the MCA occlusion. […]

Test [3] deals with Wistar rats with MCA occlusion. The experiment in a line: Neurological function on four point scale (Bederson) after 3 h MCA occlusion. Format: in vivo, rat. The protocol: CP-1 dissolved in 1% DMSO and isotonic saline was given intravenously to Wistar rats (15 μl/min) at a concentration of 50 μM for four hours beginning at the end of three hours of MCA occlusion, in accordance with the protocol described hereinabove. Control animals underwent a similar protocol, but they had injected therein a 1% DMSO/Saline as the vehicle for four hours beginning at the end of a three hour MCA occlusion. All animals which survived 7 days were sacrificed and the infarct volume was measured 7 days after the MCA occlusion.
On the first day and on the seventh day after occlusion, the neurological function was determined on a four point scale (0, 1, 2, 3,) as described in an article by Bederson, et al. in Stroke, 1986, 17:472-476, the contents of which are incorporated by reference.
The rats were placed on large sheet of soft, plastic coated paper (such as counter protection paper) which they could potentially firmly grip with their claws. The tail of the rats were held by hand, and gentle lateral pressure was applied behind the rat's shoulder until it was noticed that the forelimbs slid several inches. This maneuver was repeated several times in each direction. […] (These rats were severely dysfunctional).
These values are the mean score ±SEM of the results from treatment on control animals. P≦0.05 according to the Mann Whitney Rank Sum test.

Another test deals with T1, cathepsin B (Rattus norvegicus, UniProt P00787).
T1 construct: the brains were extracted and separated with right and left, cortical and subcortical regions and immediately frozen in liquid nitrogen; from tissue; host or cells: rat brain (cortical and subcortical regions), homogenate
T1 sequence (P00787 80-333): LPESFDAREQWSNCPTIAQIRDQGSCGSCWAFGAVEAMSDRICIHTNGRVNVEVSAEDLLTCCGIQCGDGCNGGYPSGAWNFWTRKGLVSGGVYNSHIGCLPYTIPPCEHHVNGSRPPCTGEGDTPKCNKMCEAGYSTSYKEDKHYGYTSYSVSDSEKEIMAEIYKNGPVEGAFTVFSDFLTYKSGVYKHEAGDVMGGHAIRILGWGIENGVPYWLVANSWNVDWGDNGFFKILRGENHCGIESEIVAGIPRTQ
The experiment in a line: Cathepsin B activity in brain homogenates after 2 h MCA occlusion and infusion. Format: in vivo. On the procedure:
The protocol of Example 6 was followed except as follows: the rats under went two hours of MCA occlusion, they were administered either CP-1 (50 μM) or 1% DMSO/saline for four hours after reperfusion and the rats were sacrificed after 48 hours of survival.
At that time, the brains were extracted and separated with right and left, cortical and subcortical regions and immediately frozen in liquid nitrogen. The samples were homogenized with buffer, titrated, and then reacted with the substrate CBZ-Arg-Arg-AMC with the resultant fluorescence measured with a fluorophotometer. Activity is expressed in units of enzyme activity per mg of soluble brain protein (mean +SEM).

Residues, ends and D or L forms follow the SMILES beside them. *: point of attachment. Cbz = O=C(OCc1ccccc1)*; CHN2 = [N-]=[N+]=C*; Bn = c1ccc(C*)cc1

On to `[N-]=[N+]=CC(=O)C(COCc1ccccc1)NC(=O)C(Cc1ccccc1)NC(=O)OCc1ccccc1` (stereo not drawn) [CP-1, benzyloxycarbonyl-Phe-Ser(OBz)-CHN2] (Cbz-Phe-Ser(Bn)-CHN2; configuration not given here), for which the “% Hemisphere Infarct Volume (% ± SEM)” value is 39 ± 2.1, p > 0.1% in test [1] (2 μM i.v. 15 μl/min for 4 h after reperfusion); 22 ± 4.7, p = 0.01% in test [1] (10 μM i.v. 15 μl/min for 4 h after reperfusion); 20 ± 4.1, p = 0.003% in test [1] (50 μM i.v. 15 μl/min for 4 h after reperfusion); 23 ± 5.2, p = 0.02% in test [1] (250 μM i.v. 15 μl/min for 4 h after reperfusion). Moreover, the “area of damage of the cerebral hemisphere” value in test [1] (all doses except 2 μM, reduced from 37% in control) is listed as “about 20%”. Also, in test [2] (50 μM i.v. for 4 h beginning at end of 3 h MCA occlusion, day 7, control 41.1 ± 2.4, P>0.05), the “% Hemisphere Infact Volume (% ± SEM)” value is recorded as 39.9 ± 4.1%. Further, the “reducing infarct size” value in test [2] (50 μM, 3 hour MCA occlusion) is on record as “not effective”. In test [3] (50 μM i.v. 4 h after 3 h MCA occlusion, scale 0-3, mean ± SEM, control 1.9 ± 0.3), the “Functional Score Day 7” value was 0.9 ± 0.2. Moreover, in test [3] (50 μM i.v. 4 h after 3 h MCA occlusion, scale 0-3, mean ± SEM, control 3 ± 0), the “Functional Score Day 1” value was 2.1 ± 0.6. For the same compound, the “reducing the neurological deficits due to the occlusion” value in test [3] (50 μM, 3 hour MCA occlusion) is “effective in reducing the neurological deficits”. Further, the “Cathepsin B activity, Left Cortex” value at cathepsin B (50 μM i.v. 4 h after 2 h MCA occlusion, 48 h survival, mean ± SEM, control 0.142 ± 0.02) is recorded as 0.106 ± .01 units of enzyme activity per mg of soluble brain protein. On cathepsin B (50 μM i.v. 4 h after 2 h MCA occlusion, 48 h survival, mean ± SEM, control 0.147 ± 0.02, p < 0.05), the “Cathepsin B activity, Left Subcortex” value is on record as 0.084 ± .01 units of enzyme activity per mg of soluble brain protein. At cathepsin B (50 μM i.v. 4 h after 2 h MCA occlusion, 48 h survival, mean ± SEM, control 0.181 ± 0.04), the “Cathepsin B activity, Right Cortex” value is 0.113 ± 0.01 units of enzyme activity per mg of soluble brain protein. At cathepsin B (50 μM i.v. 4 h after 2 h MCA occlusion, 48 h survival, mean ± SEM, control 0.198 ± 0.03, p < 0.05), the “Cathepsin B activity, Right Subcortex” value is reported as 0.113 ± 0.02 units of enzyme activity per mg of soluble brain protein. For the same compound, the “cathepsin B activity in the subcortical regions versus vehicle” value at cathepsin B (50 μM infusion after 2 h MCA occlusion) is reported as “significantly lower”.
